Literature values in patent US20170100348A1, “Treatment Regime for Chronic Sinusitis” (priority 2015, published 2017).

Columns and labels:
Pseudomonas aeruginosa = conditions: bacteria and phenolic compound incubated together on a plate
microbial organisms = conditions: background statement
Pseudomonas aerunginosa = conditions: background statement, FIG. 1

| Compound | preventing biofilm formation (streptococcus mutans) | biofilm formation compared to the control (Pseudomonas aeruginosa) | bacteriocidal concentration (microbial organisms) | bacteriostatic concentration (microbial organisms) | fungicidal concentration (fungi) | concentration with activity against Pseudomonas aerunginosa (Pseudomonas aerunginosa) |
| --- | --- | --- | --- | --- | --- | --- |
| Oc1ccccc1 [Phenol] | effective | significant reduction in formation of biofilm | 0.04-1.0% | greater than 0.02% | greater than 1.3% | 0.5-1.0% |
| O=C(O[C@@H]1Cc2c(O)cc(O)cc2O[C@@H]1c1cc(O)c(O)c(O)c1)c1cc(O)c(O)c(O)c1 [epigallocatechin gallate] |  | significant reduction in formation of biofilm |  |  |  |  |
| O=C(OC[C@H]1O[C@@H](OC(=O)c2cc(O)c(O)c(OC(=O)c3cc(O)c(O)c(O)c3)c2)[C@H](OC(=O)c2cc(O)c(O)c(OC(=O)c3cc(O)c(O)c(O)c3)c2)[C@@H](OC(=O)c2cc(O)c(O)c(OC(=O)c3cc(O)c(O)c(O)c3)c2)[C@@H]1OC(=O)c1cc(O)c(O)c(OC(=O)c2cc(O)c(O)c(O)c2)c1)c1cc(O)c(O)c(OC(=O)c2cc(O)c(O)c(O)c2)c1 [tannic acid] |  | significant reduction in formation of biofilm |  |  |  |  |
| Catechin |  | significant reduction in formation of biofilm |  |  |  |  |
